Laboratory results as given in patent US20140166028A1, “Enhanced Delivery of Nicotine, THC, Tobacco, Cannabidiol or Base Alkaloid from an Electronic Cigarette or Other Vapor or Smoke Producing Device Through Use of an Absorption Conditioning Unit” (priority 2012, published 2014).
“And” between values parts separate entries of the source, which are not always exact repeats. Equal entries are not always repeated.

How the values were obtained:
[1] = Buffer power test: pH on 1X, 2X, 3X dilution with Dulbecco's phosphate buffered saline (DPBS); format: physicochemical; conditions: for pH 1X DPBS: 1X dilution with DPBS; for pH 1X DPBS / pH 2X DPBS / pH 3X DPBS / pH 0X DPBS: 22-23° C.; for 1× pH: 1× dilution with DPBS; for pH 2X DPBS: 2X dilution with DPBS; for 2× pH: 2× dilution with DPBS; for pH 3X DPBS: 3X dilution with DPBS; for 3× pH: 3× dilution with DPBS; for pH of the product or solution: undiluted (0×); for pH 0X DPBS: undiluted
Description: The pH of the resulting solution is tested and the test is passed if the resulting solution has a pH below 6.0.”
A Dulbecco phosphate buffer saline solution (DPBS) was purchased and used for all compositions at the 1×, 2× and 3× dilution. A typical composition for DPBS is provided below:

[2] = capsules with sesame oil, oral; cited from earlier work

Structure (SMILES) | pH 1X DPBS ([1]; listed as NaHCO3 .1M*) | pH 1X DPBS ([1]; listed as NaHCO3 .1M**) | 1× pH [1] | pH 2X DPBS ([1]; listed as NaHCO3 .1M*) | pH 2X DPBS ([1]; listed as NaHCO3 .1M**) | 2× pH [1] | pH 3X DPBS ([1]; listed as NaHCO3 .1M*) | pH 3X DPBS ([1]; listed as NaHCO3 .1M**) | 3× pH [1] | pH of the product or solution [1] | pH 0X DPBS [1] | pH 1X DPBS [1] | pH 2X DPBS [1] | pH 3X DPBS [1] | pH of the product or solution ([1]; listed as 0.1M Sodium Carbonate) | pH of the product or solution ([1]; listed as Sodium carbonate solution: 0.1M) | fraction entering the systemic circulation [2]
O=C([O-])O.[Na+] [0.1M Sodium Bicarbonate, sodium bicarbonate] | 7.9 and 7.7 | 7.7 | 7.9 and 7.7 | 7.5 and 7.6 | 7.5 | 7.5 | 7.5 and 7.6 | 7.5 | 7.5 | 8.1 | 8.1 |  |  |  |  |  | 
O=C([O-])[O-].[Na+].[Na+] [Na2CO3 .1M, sodium carbonate] |  |  | 10.9 |  |  | 10.8 |  |  | 10.6 |  | 11.5 and 11.3 | 10.9 and 11.1 | 11.1 | 11.1 | 11.3 | 11.5 | 
CCCCCc1cc(O)c2c(c1)OC(C)(C)[C@@H]1CCC(C)=C[C@@H]21 [dronabinol] |  |  |  |  |  |  |  |  |  |  |  |  |  |  |  |  | 10-20%
